Experimental data reported in patent US6207648A, “Methods of using cytochrome P450 reductase for the enhancement of P450-based anti-cancer gene therapy” (priority 1998, dated 2001).

Experiments:
[1] = system: 9L/P450 gliosarcoma cells; assay: Growth inhibition assay of 9L/P450 cells, crystal violet (Example 2); type: cell-based, rat; settings: for inhibition at 1000 µM: Rattus norvegicus, 96 h, 1 mM, 4 days
Description: Control cells for each cell line received no drug treatment. Relative cell number at the end of the experiment was determined by crystal violet staining as described below in "Material and Methods" of Example 2. Data (mean±SD, n=3) are based on the crystal violet absorbance in drug-treated plates as a percent of the corresponding drug-free controls.
Briefly, culture dishes were washed once with phosphate buffered saline (PBS), stained for 10 minutes with crystal violet (1.25 g crystal violet (Sigma) dissolved in 500 ml containing 50 ml of 37% formaldehyde and 450 ml methanol), and then washed with PBS, twice for 20 minutes per wash. Absorbance values were measured in an SLT Spectra microtiter plate reader using a 595 nm filter. Background absorbance determined from wells containing culture media alone was subtracted from each value.

[2] = system: 9L gliosarcoma cells (parental, CYP2B1+, CYP2B1+ RED+++); assay: In vitro growth inhibition assay, XTT (Example 1); settings: lines PR11, PR7 vs P3, P17; growth inhibition assay
Description: Cells (1000/well) seeded in 96-well plates were treated with the indicated concentrations of CPA for 4 days. Corresponding controls received no drug treatment. Cell survival was determined by an XTT calorimetric assay. Data (mean for triplicate samples) were expressed as growth ratio (%), i. e., cell number (XTT activity) in drug treated plates as a percentage of the corresponding drug-free controls.
Cells (500/well) seeded in 96-well plates were treated with 1 mM cyclophosphamide in the absence or presence of the RED inhibitors AADP (0.5 mM) or DPI (5 μM). Corresponding controls received no drug treatment. Cell survival was determined by an XTT colorimetric assay. Data (mean for triplicate samples) are expressed as growth ratio (%), i.e., cell number (XTT activity) in drug treated plates as a percentage of the corresponding drug-free controls and are representative of 2-3 independent experiments. AADP and DPI were added to the cells 30 minutes prior to CPA treatment.
(B) Growth inhibition assay--Cells (1000/well) seeded in 96 well plates were treated with the indicated concentrations of CPA for 4-5 days. Corresponding controls received no drug treatment. Cell survival was determined by an XTT colorimetric assay, a cell proliferation assay that measures mitochondrial dehydrogenase activity of viable cells (Scudiero, D. A., et al., Cancer Res. 48:4827-4833 (1988)).

[3] = system: 9L gliosarcoma cells (parental, CYP2B1+, CYP2B1+ RED+++); assay: In vitro colony formation cytotoxicity assay (Example 1); type: cell-based, rat
From the text: FIGS. 2A and 2C depict the results of a colony formation cytotoxicity assay.
FIG. 3A depicts results from a colony formation cytotoxicity assay. […] The survival fraction is expressed as the number of colonies in each treatment group compared to the untreated control.
Corresponding controls received no drug treatment.

[4] = system: 9L tumors in female Fischer 344 rats; assay: In vivo cytotoxicity / tumor excision assay, s.c. 9L tumors; parameters: species or system rat
Description: FIG. 9 is a graph depicting the results of an in vivo tumor excision assay, which quantitates the extent of CPA-induced tumor cell kill in rats in vivo for 9L tumors, compared to 9L tumors engineered to express P450 alone (CYP2B1^+) or P450 in combination with RED (CYP2B1^+ RED^+++).Female Fischer 344 rats were inoculated with parental 9L, CYP2B1^+, and CYP2B1^+ RED^+++ tumor cells by subcutaneous injection of 2×10^6 tumor cells/0.2 ml in the hindleg as described below in the "Materials and Methods" section of Example 1. At 2 weeks after tumor implantation, each animal received a single injection of CPA (50 or 100 mg/kg body weight) or saline as control. Twenty four hours later, tumors were excised, and single cell suspensions were prepared for assay of colony formation activity. Results are presented as mean survival fractions as compared to control groups, for 4 or 5 determinations; bars, standard error (SE).
In vivo cytotoxicity assay: Tumor cells were grown subcutaneously as solid tumors in female Fischer 344 rats (120-150g). Each rat was inoculated by subcutaneous injection of one tumor cell line at the right thigh and a second tumor cell line at the left thigh at 2×10^6 cells/site. Rats were randomized and divided into three groups. One group was injected with saline as a control. The other two groups were treated with CPA at 50 mg/kg or 100 mg/kg body weight given as a single intraperitoneal injection 2 weeks after tumor implantation. At 24 hours after CPA injection, the rats were sacrificed and soaked briefly in 75% ethanol. The tumors were excised, suspended in DMEM, and minced under sterile conditions. […] The single cell suspensions were counted and plated at densities of 200, 2×10^3 and 2×10^4 cells/well of a 6-well plate, in duplicate, to determine cell viability by a colony formation assay. […] Cells were grown for 7 days and colonies (>50 cells) were then stained with crystal violet and counted. Results are expressed as the surviving fractions SEM of cells from drug treated groups compared to untreated controls.

parental 9L cells = assay: Limited dilution assay of conditioned media, bystander killing of parental 9L cells; type: cell-based, rat; settings: PR11, PR7 vs P3, P17; 2 mM CPA 48 h
Description: FIG. 5 is a graph depicting the effects of culture media from P450 and RED-transduced tumor cells incubated with CPA, on the survival of wild-type tumor cells. […] Parental 9L cells seeded in 30 mm plates (10^4 cells/well) in duplicate were cultured with 5-50% of condition media collected from each of the indicated cell lines (1.5×10^6) incubated with 2 mM CPA for 48 hours as described below in the "Materials Methods" section of Example 1. Five days after treatment, the number of viable parental 9L cells was determined using a hemacytometer based on trypan blue exclusion (mean for duplicate values).
Limited dilution assay to evaluate bystander killing effect: 9L cells were seeded in 6-well plates at 1.5×10^6 cells/well for 12 hours, and treated with 2 mM CPA for 48 hours. The conditioned media from each well was collected, diluted 5-50% into fresh media as indicated for each experiment, and added into wells of a second set of 6-well plates pre-seeded with parental 9L cells (10^4 cells/well). Cultures were maintained for 5-7 days and colonies were scored as described for the clonogenic assay.

With O=P1(N(CCCl)CCCl)NCCCO1 (stereo not drawn) [CPA, cyclophosphamide] as the compound, how does the “effect of P450 reductase overexpression on cytotoxicity” value ([1]; 9L/2B6 and 9L/2C18-Met cells, FIG. 15) read?
Its value is “markedly increased the cytotoxicity”.

And the “cytotoxicity with RED transduction alone, in absence of P450” value ([1]; 9L/RED, FIG. 15)?
Its value is “did not confer CPA or IFA cytotoxicity”.

And the “sensitivity of P450-negative cells” value ([1]; 9L/wt and 9L/pBabe, millimolar concentrations)?
The value was “insensitive”.

What about the inhibition at 1000 µM ([1]; 9L/2B6) of the same compound?
Its inhibition at 1000 µM is > 95%.

What about the inhibition at 1000 µM ([1]; 9L/2C9 and 9L/2C18-Thr) of the same compound?
The inhibition at 1000 µM was ~60%.

And the inhibition at 1000 µM ([1]; 9L/2C19 and 9L/2C18-Met)?
Its inhibition at 1000 µM is 75 to 85%.

And the inhibition at 1000 µM ([1]; 9L/3A4)?
Its inhibition at 1000 µM is ~90%.

And the “efficiency of P450 genes in chemosensitizing 9L cells to CPA” value ([1]; six human P450 genes)?
Its value is 2B6>2C18-Met~3A4>others.

And the “cytotoxic response of CYP2B1+ cells on RED overexpression” value [2]?
Its value is “significantly enhanced the cytotoxic response”.

And the “sensitization of 9L cells to CPA by RED overexpression alone” value ([3]; line 9L-R (RED without CYP2B1))?
Its value is “did not sensitize 9L tumor cells”.

And the “cytotoxic response of CYP2B1+ cells on RED overexpression” value ([3]; lines PR11, PR7 vs P3, P17, colony formation assay)?
Its value is “significantly enhanced the cytotoxic response”.

What about the “killing of CYP2B1+ tumors compared to wild type 9L tumors” value ([4]; 100 mg/kg, 24 h) of the same compound?
The value was “up to 10 fold”.

And the “additional tumor cell killing in CYP2B1+ RED+++ tumors” value ([4]; 24 h after CPA)?
The value was “approximately 10 fold”.

What about the “overall increase in tumor cell kill in vivo over hepatic drug activation alone” value ([4]; CYP2B1 + RED) of the same compound?
The value was 50-100 fold.

What about the “cytotoxicity of conditioned media of CYP2B1+ RED+++ vs CYP2B1+ cells incubated with CPA” value (parental 9L cells) of the same compound?
Its value is “substantially more cytotoxic”.
